Reference: PubChem BioAssay AID248 (DTP/NCI, 2004)
“And” between values parts separate entries of the source, which are not always exact repeats. Identical values can stand only once. Inconclusive results and toxic doses are left out.

Tested on: L1210 leukemia ip in BDF1 mice, survival T/C
Experiment: NCI In Vivo Anticancer Drug Screen. Data for tumor model L1210 Leukemia (intraperitoneal) in B6D2F1 (BDF1) mice
Settings: endpoint: mean survival time, higher = longer survival
Outline: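 Transplanted-tumor mice were given test agent; controls received vehicle only. Survival readings from the two groups were divided (treated over control).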

[1] = dose: 100.0 mg/kg/injection, schedule: Q01DX009 (ip), vehicle: Klucel (hydroxypropylcellulose) (HPC)
[2] = dose: 200.0 mg/kg/injection, schedule: Q01DX009 (ip), vehicle: Klucel (hydroxypropylcellulose) (HPC)
[3] = dose: 400.0 mg/kg/injection, schedule: Q01DX009 (ip), vehicle: Klucel (hydroxypropylcellulose) (HPC)

O=C1NC(c2ccc3ccccc3n2)Nc2ccccc21 (stereo not drawn)
T/C (dose: 50.0 mg/kg/injection, schedule: Q01DX009 (ip), vehicle: Klucel (hydroxypropylcellulose) (HPC)): 92 % of control
T/C [1]: 93 % of control
T/C (dose: 150.0 mg/kg/injection, schedule: Q01DX009 (ip), vehicle: Klucel (hydroxypropylcellulose) (HPC)): 90 % of control

COc1ccc(-c2nc3ccccc3s2)cc1OC
T/C (dose: 100.0 mg/kg/injection, schedule: Q04DX003 (ip), vehicle: Klucel (hydroxypropylcellulose) (HPC)): 95 % of control and 105 % of control
T/C (dose: 200.0 mg/kg/injection, schedule: Q04DX003 (ip), vehicle: Klucel (hydroxypropylcellulose) (HPC)): 98 % of control and 102 % of control
T/C (dose: 400.0 mg/kg/injection, schedule: Q04DX003 (ip), vehicle: Klucel (hydroxypropylcellulose) (HPC)): 98 % of control and 105 % of control

COc1cc(C=Nc2cccc(Br)c2)ccc1N(CCCl)CCCl
T/C (dose: 1.4 mg/kg/injection, schedule: Q01DX015 (ip), vehicle: carboxymethylcellulose (CMC)): 107 % of control
T/C (dose: 2.2 mg/kg/injection, schedule: Q01DX015 (ip), vehicle: carboxymethylcellulose (CMC)): 111 % of control
T/C (dose: 3.3 mg/kg/injection, schedule: Q01DX009 (ip), vehicle: saline): 101 % of control
T/C (dose: 3.3 mg/kg/injection, schedule: Q01DX015 (ip), vehicle: carboxymethylcellulose (CMC)): 113 % of control
T/C (dose: 5.0 mg/kg/injection, schedule: Q01DX009 (ip), vehicle: saline): 116 % of control
T/C (dose: 5.0 mg/kg/injection, schedule: Q01DX015 (ip), vehicle: carboxymethylcellulose (CMC)): 119 % of control and 121 % of control
T/C (dose: 9.0 mg/kg/injection, schedule: Q01DX009 (ip), vehicle: saline): 109 % of control
T/C (dose: 9.0 mg/kg/injection, schedule: Q01DX015 (ip), vehicle: carboxymethylcellulose (CMC)): 159 % of control
T/C (dose: 15.0 mg/kg/injection, schedule: Q01DX009 (ip), vehicle: saline): 111 % of control
T/C (dose: 15.0 mg/kg/injection, schedule: Q01DX015 (ip), vehicle: carboxymethylcellulose (CMC)): 105 % of control
T/C (dose: 22.0 mg/kg/injection, schedule: Q01DX001 (ip), vehicle: carboxymethylcellulose (CMC)): 111 % of control
T/C (dose: 25.0 mg/kg/injection, schedule: Q01DX015 (ip), vehicle: carboxymethylcellulose (CMC)): 94 % of control and 97 % of control
T/C (dose: 25.0 mg/kg/injection, schedule: Q04DX003 (ip), vehicle: saline): 86 % of control
T/C (dose: 33.0 mg/kg/injection, schedule: Q01DX001 (ip), vehicle: carboxymethylcellulose (CMC)): 108 % of control
T/C (dose: 50.0 mg/kg/injection, schedule: Q01DX001 (ip), vehicle: carboxymethylcellulose (CMC)): 113 % of control
T/C (dose: 50.0 mg/kg/injection, schedule: Q04DX003 (ip), vehicle: saline): 119 % of control
T/C (dose: 100.0 mg/kg/injection, schedule: Q01DX001 (ip), vehicle: carboxymethylcellulose (CMC)): 117 % of control
T/C (dose: 200.0 mg/kg/injection, schedule: Q01DX001 (ip), vehicle: carboxymethylcellulose (CMC)): 117 % of control
T/C (dose: 400.0 mg/kg/injection, schedule: Q01DX001 (ip), vehicle: carboxymethylcellulose (CMC)): 123 % of control

COc1ccc([N+](=O)[O-])cc1NC(=O)Nc1ccccc1C(F)(F)F
T/C [1]: 88 % of control and 92 % of control
T/C [2]: 92 % of control
T/C [3]: 92 % of control

O=C1/C(=C/c2ccccc2)Cc2cccc(O)c21
T/C (dose: 100.0 mg/kg/injection, schedule: Q01DX009 (ip), vehicle: saline sonified): 100 % of control
T/C (dose: 200.0 mg/kg/injection, schedule: Q01DX009 (ip), vehicle: saline sonified): 107 % of control
T/C (dose: 400.0 mg/kg/injection, schedule: Q01DX009 (ip), vehicle: saline sonified): 102 % of control

O=C(NCCCl)N(c1ccccc1)c1cccc(C(F)(F)F)c1
T/C (dose: 100.0 mg/kg/injection, schedule: Q01DX005 (ip), vehicle: Klucel (hydroxypropylcellulose) (HPC)): 102 % of control
T/C [1]: 98 % of control
T/C (dose: 100.0 mg/kg/injection, schedule: Q04DX002 (ip), vehicle: Klucel (hydroxypropylcellulose) (HPC)): 114 % of control
T/C (dose: 200.0 mg/kg/injection, schedule: Q01DX005 (ip), vehicle: Klucel (hydroxypropylcellulose) (HPC)): 91 % of control
T/C [2]: 98 % of control
T/C (dose: 200.0 mg/kg/injection, schedule: Q04DX002 (ip), vehicle: Klucel (hydroxypropylcellulose) (HPC)): 96 % of control
T/C (dose: 400.0 mg/kg/injection, schedule: Q01DX005 (ip), vehicle: Klucel (hydroxypropylcellulose) (HPC)): 94 % of control
T/C [3]: 98 % of control
T/C (dose: 400.0 mg/kg/injection, schedule: Q04DX002 (ip), vehicle: Klucel (hydroxypropylcellulose) (HPC)): 104 % of control

Cc1cc(C)cc(N=Cc2ccccc2)c1
T/C (dose: 50.0 mg/kg/injection, schedule: Q01DX001 (ip), vehicle: saline with Tween-80): 98 % of control
T/C (dose: 100.0 mg/kg/injection, schedule: Q01DX001 (ip), vehicle: saline with Tween-80): 98 % of control
T/C (dose: 200.0 mg/kg/injection, schedule: Q01DX001 (ip), vehicle: saline with Tween-80): 95 % of control
